Laboratory results reported in paper PMC5335257, “Promoting in vivo remyelination with small molecules: a neuroreparative pharmacological treatment for Multiple Sclerosis” (Scientific Reports, 2017).

How the values were obtained:
[1] = Pharmacokinetics in plasma and brain after single i.p. or oral dose; type: in vivo, male BALB/c mice; settings: for AUCinf / AUClast / Cmax / MRT inf / MRT last / Tmax / AUC(0-inf) / AUC(0-t): male BALB/c mice; for Cmax / MRT inf / MRT last / Tmax / AUC(0-inf) / AUC(0-t): mouse
[2] = test system: OPCs isolated from P0 mice; assay: Differentiation assay, murine OPCs; type: cell-based, mouse
Protocol: We isolated OPCs, as previously described. Briefly, a stock papain solution was prepared containing ([…]; Worthington Biochemical), L-cysteine (0.2 mg/ml; Sigma), and EDTA (0.2 mg/ml; Sigma) in Hank’s Balanced Salt Solution (HBSS; Invitrogen) without Ca^2+ and Mg[2]. Then, the cerebral cortices of P0 CD1 mice were dissected out and placed for 5 minutes at 37 °C in a medium containing the stock papain solution in HBSS with Ca^2+ and Mg^2+ (1:10; Invitrogen) in order to easily remove the meninges. Once meninges and choroid plexus were removed, the tissue was enzymatically dissociated for 5 minutes at 37 °C again by using the papain solution (1:10 in HBSS without Ca^2+ and Mg^2+) and the digested tissue was then filtered through a 100 μm nylon mesh strainer (BD Biosciences) and seeded on poly-L-ornithine-coated (Sigma) 75 cm^2 flasks in DMEM medium (Invitrogen) containing 10% foetal bovine serum (FBS; BioWhittaker) and 100 U/mL penicillin, 0.1 mg/mL streptomycin and 0.25 μg/ml Amphotericin B antibiotic antimycotic solution (Sigma). Cultures were maintained at 37 °C and 5% CO2, and the medium was changed every 3 days. When the cultures reached confluence, they were shaken overnight at 250 rpm and at 37 °C in order to detach the OPCs located on the top of the confluent astrocyte monolayer and the medium was then filtered through a 40μm nylon mesh strainer (BDBiosciences) and centrifuged at 900 rpm. Cells were seeded twice (45 minutes each) in bacterial grade Petri dishes (Sterilin) to remove microglial cells. The resulting enriched oligodendrocyte progenitor cell suspension was counted and seeded.
Purified OPCs were placed on coverslips coated with poly-L-lysine and laminin in 24-well tissue culture dishes at a density of 2 × 10^4 cells/well. To promote differentiation, the cells were maintained in the differentiation medium (described above) and PDE7-GSK3 or GSK3 inhibitors (VP3.15 or TDZD8; 1 μM) were added to the culture medium. Different controls were used for the dual or single inhibitors due to the active substance being dissolved in differing amounts of DMSO. After 5, 7 and 10 DIV the cells were fixed with 4% PFA for further immunocytochemical analysis. Anti-CNPase antibodies (1:200;Covance; Cat#SMI-91R), anti-MBP antibodies (1:200; Serotec; Cat#MCA4095) for detecting oligodendrocytes and anti-Olig2 antibodies (1:250; Millipore; Cat#AB9610) as a marker for all oligodendroglial stages were used. Ten random fluorescence digital images were taken in each coverslip with a DFC480 FX digital camera (Leica) coupled to a Leica DM5000 B microscope for quantification. Data were expressed as a mean ratio of differentiated oligodendrocytes (CNPase^+-Olig2^+ double positive cells) with respect to total Olig2^+ cells ± SEM or percentage of CNPase^+ cells respect to control ± SEM, in at least three independent experiments, except with human samples (two independent experiments).

[3] = test system: corpus callosum of LPC-injected mice; assay: In vivo remyelination, LPC demyelination model; parameters: species or system C57/BL6 male mice; settings: 10 mg/kg i.p. from 9 dpi
Protocol: Anaesthetized 8 week old C57/BL6 male mice were injected with 2 μl of 1% LPC through a hole drilled in the skull at stereotactic coordinates 1.2 mm posterior, 0.5 mm lateral, 1.4 mm deep to the bregma over 4 minutes using a 30-gauge needle attached to a Hamilton syringe, driven by a KD Scientific Nano pump, for 4 minutes to reduce backflow as previously described. At 9 days post injection (dpi), the first intraperitoneal dose of PDE7-GSK3 inhibitors (VP1.15 or VP3.15; 10 mg/kg of animal) was injected using the same solution detailed above for the cuprizone model. Each inhibitor was injected into a group of 10 mice and another group of 10 mice was injected with the vehicle. Two days after, a second dose was injected (11 dpi) and 5 mice of each group were perfused at 14 dpi with 4% PFA and 2% glutaraldehyde (GTA) in phosphate buffer. The remaining 5 animals of each group received a third injection of inhibitors (15 dpi) and were perfused at 21 dpi. A control group of 3 non-lesioned and non-treated mice was used as control. Fixed brains were post-fixed in 1% GTA for 7 days and then coronally cut into 1 mm slices. The slices containing the injected areas were selected and the area of interest was cut and processed for electron microscopy into a resin (Araldite/TAAB 812 Resin Kit, TAAB) following manufacturer instructions.
In order to detect the injured areas for investigation, sagittal semi-thin sections (1 μm) were cut using an ultramicrotome (Leica) and stained with toluidine blue. Ultra-thin sections (60 nm thick) were cut and stained in uranyl acetate and lead citrate and the ultrastructure was analysed taking images with a GatanOrius CCD camera coupled to a transmission electronic microscope (Philips CM120). The percentage of myelinated fibres and the thickness of myelin sheaths were examined. The mean percentage of myelinated fibres was measured from 10 fields per animal. Grids were overlaid onto the images and all axons intersecting with the grid lines were counted as myelinated or not[83][84]. The thickness of myelin around myelinated fibres was expressed as a g-ratio (axon perimeter divided by myelinated fibre perimeter) using ImageJ by tracing around a minimum of 100 individual fibres per mouse, using a pen and electronic pad (Bamboo pad, Wacom). To select the fibres randomly, a grid composed by 8 μm[2] squares was overlaid onto the images and fibres in alternate squares were measured. Data were expressed as the mean ± SEM.

[4] = test system: spinal cord injury models; parameters: method as in PMID 21297958, PMID 23077723; settings: spinal cord injury models (as well as EAE); cited from earlier work
[5] = i.p. 10 mg.kg^−1 single dose, brain
[6] = ip, i.p. 10 mg.kg^−1 single dose, brain
[7] = ip, i.p. 10 mg.kg^−1 single dose, plasma
[8] = po, p.o. 50 mg.kg^−1 single dose, brain
[9] = po, p.o. 50 mg.kg^−1 single dose, plasma
[10] = p.o. 50 mg.kg^−1 single dose, brain
[11] = murine P0 OPCs, 1 μM, 5, 7 and 10 DIV

With `c1ccc(-c2n/c(=N/CCN3CCOCC3)sn2-c2ccccc2)cc1` [VP3.15] the AUCinf [1, 5] was 1506.00 ng·h/g, the AUClast [1, 5] was 1489.25 ng·h/g and the “oral bioavailability and brain penetration” value ([1]; mice, after oral and i.p. administration) was “shows oral bioavailability and brain penetration”. It also gave a Cmax [1, 6] of 1980 ng/g, an MRT inf [1, 6] of 1.25 h and an MRT last [1, 6] of 1.21 h. For the same molecule, the Tmax [1, 6] was 0.08 h, the AUC(0-inf) [1, 7] was 2000 ng·h/mL and the AUC(0-t) [1, 7] was 1960 ng·h/mL. The Cmax [1, 7] was 1990 ng/mL, the MRT inf [1, 7] was 0.91 h and the MRT last [1, 7] was 0.82 h. It also gave a Tmax [1, 7] of 0.25 h, a Cmax [1, 8] of 497 ng/g and an MRT inf [1, 8] of 4.01 h. It also gave an MRT last [1, 8] of 2.07 h, a Tmax [1, 8] of 0.5 h and an AUC(0-inf) [1, 9] of 2380 ng·h/mL. For the same molecule, the AUC(0-t) [1, 9] was 2290 ng·h/mL, the Cmax [1, 9] was 881 ng/mL and the MRT inf [1, 9] was 1.86 h. It also gave an MRT last [1, 9] of 1.64 h, a Tmax [1, 9] of 1 h and an AUCinf [1, 10] of 1794.28 ng·h/g. The AUClast [1, 10] was 1375.08 ng·h/g, the “number of mature oligodendrocytes (CNPase+-Olig2+ cells) vs control” value [2, 11] was “significant increase” and the “number of mature oligodendrocytes (MBP+-Olig2+ cells) vs control” value [2, 11] was “significant increase”. The “number of primary cytoplasmic processes” value ([2]; murine mature oligodendrocytes, control 4.9 ± 0.35, p = 0.64) was 4.7 ± 0.31, the “number of cytoplasmic subprocesses” value ([2]; murine mature oligodendrocytes, control 8.588 ± 0.875, p = 0.62) was 8.111 ± 0.970 and the “thickness of myelin sheaths (G-ratio) vs untreated demyelinated control” value [3] was “increased the thickness”. For the same molecule, the “percentage of myelinated callosal fibers vs vehicle” value ([3]; analysed at 14 or 21 dpi) was “did not show any effect” and the immunomodulatory effect [4] was “immunomodulatory effect”.
